Marks after values point to notes of the source that are not given here.
Legend:
Assay type in all cases: cell-based, human
YAP/TAZ = experiment: Nuclear translocation assay to identify activators of YAP/TAZ bioactivity, fibroblasts on fibronectin micro-islands; details: for Mechano-transduction Activation (% Increase): 20 uM, 2 hours, YAP/TAZ nucleus/cytoplasm ratio normalised to control and LPA; for Induction of mechano-transduction signaling (translocation of cytoplasmic YAP/TAZ into the nucleus), in words: over the vehicle DMSO
Method: Cellular localization of YAP can be regulated by the rigidity of the substrate or ECM that cells are attached to, or the degree to which cells can spread on a substrate. Thus in vitro models can be useful to engineer low states of YAP activity.
Briefly, primary human dermal fibroblasts were seeded on microprinted substrate islands (<1000 μm^2) of fibronectin and incubated overnight at 37° C., 5% CO2 in a cell culture incubator. Next, fibroblasts were treated with materials described in Table 1. After the treatment period of 2 hours, cells were fixed and stained: nuclei were stained with Hoechst dye and YAP/TAZ was stained with a mouse antibody to YAP/TAZ (Santa Cruz Biotechnology), followed by the secondary fluorescently tagged antibody (donkey anti-mouse AlexaFluor 488). Microscopic images were acquired and YAP/TAZ fluorescent signal measured in the cytoplasm and nucleus of each cell. The fluorescence intensity measured in the nucleus is divided by the one measured in the cytoplasm to obtain the YAP/TAZ ratio readout as described below Table 1.

procollagen-I = experiment: Procollagen type 1 C-peptide (PIP) EIA on media of dermal fibroblasts on soft hydrogel; details: for Procollagen: day 6; for Effect on procollagen-I synthesis in human dermal fibroblasts, in words: substrates mimicking the biomechanical properties of skin
Method: Since YAP activity is highly dependent on substrate rigidity it was necessary to develop and perform assays on substrates with tunable mechanical properties.
Primary human dermal fibroblasts (P3) are plated at 31,579 cells per cm2 into 24-well […] collagen coated hydrogel plates in 1 ml 2% fetal bovine serum in Dulbecco's Modified Eagles Media (DMEM) and maintained 24 hours in a cell culture incubator at 5% carbon dioxide. The cells were washed twice with Dulbecco's Phosphate Buffered Saline then 1 ml of DM EM supplemented with 0.6% fatty acid free bovine serum albumin. The cells were maintained for 24 hours in a cell culture incubator at 5% carbon dioxide.
Two hundred microliter of media was removed from each well. To each well were added 100 ul of 500 ug per ml ascorbic acid in DMEM supplemented with 0.6% fatty acid free bovine serum albumin. Test materials were diluted to 10X final concentration in DMEM supplemented with 0.6% fatty acid free bovine serum albumin or PBS supplemented with 0.1% fatty acid free bovine serum albumin and 100 ul dosed to duplicate wells. The cells/plates were incubated for 3 days at 37° C., 5% CO2 in a cell culture incubator. On day 3 the media was removed from the wells and 900u1 DMEM supplemented with 0.6% fatty acid free bovine serum albumin plus 50 ug/ml ascorbic acid. The treatments were added as described above. On day 6 after the start of treatment remove 100 ul of the media from each well for the determination of the level of procollagen.
The amount of procollagen in the media samples was determined using the Takara Bio Procollagen type 1 C-peptide (PIP) detection EIA assay. The assay was run following the manufacturer's instructions as following—100 ul of the reconstituted antibody-POD conjugate to the wells of the assay for the number required for the media samples and the standard curve. The procollagen standard solution was 2-fold serial diluted using sample diluent to generate a standard curve of 640, 320, 160, 80, 40, 20, 10 and 0 ng/ml procollagen. The media samples were diluted 1/20 with sample diluent. Twenty ul of the standard curve dilutions were added to the wells of the assay plate in duplicate. The 20 ul media dilutions in sample diluent were added to the wells of the assay plate in singlet. The plate was incubated for 3 hours at 37° C., washed 4 times with phosphate buffered saline wash buffer and tapped to remove all residual wash buffer. One hundred ul of substrate solution (TMBZ) was added to each well and incubate 15 minutes. One hundred ul of stop solution was added to each well, the plate shaken to mix and the optical density at 450 nm read in a plate reader. The amount of procollagen in the test samples was calculated from the standard curve values and corrected for the dilution factor and the volume in the well to generate the ng of procollagen in the samples. The amount of procollagen induced by the test materials was compared to the basal media.

[1] = system: CRABPII (cellular retinoic acid binding protein II); experiment: CRABPII gene expression by TaqMan real time PCR in dermal fibroblasts
Method: (§1) Primary human dermal fibroblasts (P3) are plated at 31,579 cells per cm^2 into 6-well 2 kPa hydrogel collagen coated plates in 2 ml 2% fetal bovine serum in Dulbecco's Modified Eagles Media (DMEM) and maintained 24 hours in a cell culture incubator at 5% carbon dioxide. The cells were washed twice with Dulbecco's Phosphate Buffered Saline DPBS) then 1 ml of DMEM supplemented with 0.6% fatty acid free bovine serum albumin (FAF-BSA). The cells were maintained for 24 hours in a cell culture incubator at 5% carbon dioxide. Four hundred ul of media was removed from each well of the plates. Two hundred ul of the YAP active treatments diluted at 10X the desired final concentration plus 1% DMSO were diluted in DMEM supplemented with 0.6% fatty acid free bovine serum albumin. The control wells were treated with two hundred ul of 1% DMSO were diluted in DMEM supplemented with 0.6% fatty acid free bovine serum albumin. Two hundred ul of water-soluble YAP actives diluted at 10X the desired final concentration diluted in DPBS+0.1% FAF-BSA. The controls wells were treated with 200 ul DPBS+0.1% FAF-BSA. The plates were incubated overnight at 37° C. at 5% CO2. In the AM the plates were dosed with the 220 ul of the water-soluble YAP actives in DPBS +0.1% FAF-BSA or the control well with 220 ul DPBS +0.1% FAF-BSA. After 6 hours the media was aspirate from the wells, the cells washed 2X with DPBS and the plate frozen at -80 °C until the RNA was isolated.
700 ul of RLT buffer plus beta-mercaptoethanol was added to each well immediately after removing the plate from the freezer. The plate was placed on an orbital shaker at 500 revolution per minute up for 15 minutes while the buffer thawed and extracted the cells. […] The RNA samples were quantitated on a NanoDrop 800 and quantity access on an Agilent Bio-analyzer. […] The cDNA samples were evaluated for the expression level of select markers using comparative Taqman analysis using 2 ul of the cDNA per reaction. […]
An independent experiment was conducted using cell culture and RNA isolation methods described in Example 2 to further elucidate the retinyl propionate+ORG synergy (as observed in Table 4) by analyzing a well-described marker of a retinoid activity CRABPII (cellular retinoic acid binding protein II). […] Then, 10 ng cDNA samples per reaction were evaluated for the expression level of CRABPII using primers and comparative TaqMan™ Gene Expression Assay and TaqMan™ Fast Advanced Master (FAM) Mix (purchased from Applied Biosystems™) and run in a ViiA™ 7 Real Time PCR System (from Applied Biosystems™). Percent increases in CRABPII expression was calculated by converting the log2fold-change to a percentage increase using the following formula: Percent increase=100*(2^log2FC)-100.

COL3A1 = experiment: mRNA gene expression in dermal fibroblasts on 2 kPa hydrogel (RNA-seq); details: vs. Vehicle
Method: as §1
(§2) The RNA was isolated using the Qiagen RNeasy mini kit following the manufacturer's instruction with the following modifications—
(§3) 700 ul of RLT buffer plus beta-mercaptoethanol was added to each well immediately after removing the plate from the freezer. The plate was placed on an orbital shaker at 500 revolution per minute up for 15 minutes while the buffer thawed and extracted the cells. The cell lysate was transfer to Qiashedders and pass the Qiashedder to disrupt the cells. The recovery lysate was mixed with an equal volume of 70% Ethanol, 30% water. The RNA was purified on the minicolumns including the DNase step to remove DNA contamination. The RNA samples were quantitated on a NanoDrop 800 and quantity access on an Agilent Bio-analyzer. An aliquot of the RNA samples was reverse transcribed in cDNA then diluted to 5 ng/ul of input RNA. The cDNA samples were evaluated for the expression level of select markers using comparative Taqman analysis using 2 ul of the cDNA per reaction. The level of RNA expression was compared using the delta delta Cycle threshold (ddCt) method. Aliquot of the RNAs were also submitted to Lexogen (Vienna, Austria) for RNA-seq analysis.
(§4) Shown in Table 5 is the average percent increase in mRNA expression for genes involved in extracellular matrix production following ORG treatment relative to the vehicle control, along with the Benjamini-Hochberg adjusted p-values (adj.p.value) calculated by converting the average log2fold-change (calculated using DESeq2) to a percentage increase using the following formula: Percent increase=100*(2^log2FC)-100.

FBN1 = experiment: as above; details: vs. Vehicle
Method: as §1, §2, §3, §4

COL4A1 = experiment: as above; details: vs. Vehicle
Method: as §1, §2, §3, §4

FN1 = experiment: as above; details: vs. Vehicle
Method: as §1, §2, §3, §4

ELN = experiment: as above; details: vs. Vehicle
Method: as §1, §2, §3, §4

COL5A1 = experiment: as above; details: vs. Vehicle
Method: as §1, §2, §3, §4

HAS2 = experiment: as above; details: vs. Vehicle
Method: as §1, §2, §3, §4

COL1A1 = experiment: as above; details: vs. Vehicle
Method: as §1, §2, §3, §4

[2] = Experiment 1, 50 μM, vehicle control 1933.3
[3] = Experiment 2, 50 μM, vehicle control 2240.5

## CCCCCCCCCCCCCCCCCC(=O)OCC(O)CO (racemic) [1-Stearoyl-rac-glycerol]
YAP/TAZ
  Mechano-transduction Activation (% Increase): 6 +/− 7%
  Induction of mechano-transduction signaling (translocation of cytoplasmic YAP/TAZ into the nucleus), in words: do not induce mechano-transduction

## CCCCCCCC/C=C\CCCCCCCC(=O)OC[C@@H](O)COP(=O)([O-])O.[Na+] [LPA, Lysophosphatidic acid]
YAP/TAZ
  Mechano-transduction Activation (% Increase): 100 +/− 1 ** %
  Induction of mechano-transduction signaling (translocation of cytoplasmic YAP/TAZ into the nucleus), in words: induces mechano-transduction signaling
procollagen-I; Experiment 1, 30 μM, vehicle control 1933.3
  Procollagen: 3532.6 ng/mL
procollagen-I; Experiment 2, 30 μM, vehicle control 2240.5
  Procollagen: 3381.3 ng/mL

## CCCCCCCCCCCCCCC(=O)OCC(O)CO (racemic) [1-Pentadecanoyl-rac-glycerol]
YAP/TAZ
  Mechano-transduction Activation (% Increase): 25 +/− 26%
  Induction of mechano-transduction signaling (translocation of cytoplasmic YAP/TAZ into the nucleus), in words: do not induce mechano-transduction

## CCC(=O)OC/C=C(C)/C=C/C=C(C)/C=C/C1=C(C)CCCC1(C)C [retinyl propionate]
procollagen-I; Experiment 3, 10 μM, vehicle control 1301.9
  Procollagen: 1452.0 ng/mL
procollagen-I
  Effect on procollagen-I synthesis in human dermal fibroblasts, in words: do not exhibit such a pronounced effect
[1]
  Effect on CRABPII gene expression, in words: robust increase in CRABPII gene expression
[1]; 10 μM
  Percent Increase in CRABPII Gene Expression vs Vehicle: 138%

## CC(C)c1cc2c(cc1O)[C@@]1(C)CC[C@H](O)C(C)(C)[C@@H]1CC2 [Hinokiol]
procollagen-I; [2]
  Procollagen: 1946.1 ng/mL
procollagen-I; [3]
  Procollagen: 1843.5 ng/mL
procollagen-I
  Effect on procollagen-I synthesis in human dermal fibroblasts, in words: do not exhibit such a pronounced effect

## CCCCCCCC/C=C\CCCCCCCC(=O)NCC(=O)O [Oleoyl Glycinate]
procollagen-I; [2]
  Procollagen: 2474.9 ng/mL
procollagen-I
  Effect on procollagen-I synthesis in human dermal fibroblasts, in words: do not exhibit such a pronounced effect

## oleoyl-rac-glycerol [ORG (Monomuls ®)]
procollagen-I; [2]
  Procollagen: 3084.2 ng/mL
procollagen-I; [3]
  Procollagen: 3256.8 ng/mL
procollagen-I; Experiment 3, 50 μM, vehicle control 1301.9
  Procollagen: 2275.4 ng/mL
procollagen-I
  Effect on procollagen-I synthesis in human dermal fibroblasts, in words: promotes the synthesis of procollagen-I
[1]
  Effect on CRABPII gene expression, in words: more modest increase
[1]; 50 μM
  Percent Increase in CRABPII Gene Expression vs Vehicle: 54%
COL3A1
  COL3A1 mRNA expression, Percent Increase: 15.35%
FBN1
  FBN1 mRNA expression, Percent Increase: 12.36%
COL4A1
  COL4A1 mRNA expression, Percent Increase: 20.36%
FN1
  FN1 mRNA expression, Percent Increase: 15.49%
ELN
  ELN mRNA expression, Percent Increase: 18.49%
COL5A1
  COL5A1 mRNA expression, Percent Increase: 10.73%
HAS2
  HAS2 mRNA expression, Percent Increase: 164.75%
COL1A1
  COL1A1 mRNA expression, Percent Increase: 21.16%

## CCCCCCCC/C=C\CCCCCCCC(=O)OCC(O)CO (racemic) [1-oleoyl-rac-glycerol]
YAP/TAZ
  Mechano-transduction Activation (% Increase): 17 +/− 10 ** %
  Induction of mechano-transduction signaling (translocation of cytoplasmic YAP/TAZ into the nucleus), in words: significantly induces mechano-transduction signaling

## C=CCc1ccc(O)c(-c2cc(CC=C)ccc2O)c1 [Magnolol]
procollagen-I; [3]
  Procollagen: 2512.8 ng/mL
procollagen-I
  Effect on procollagen-I synthesis in human dermal fibroblasts, in words: do not exhibit such a pronounced effect

From patent US20240173231A1, “COSMETIC SKIN CARE COMPOSITION” (Conopco, Inc., d/b/a UNILEVER, priority 2021, published 2024)
